Measurements as given in publication PMC12621175, “Scaffold Fusion and SAR Transfer with a Chemical Language Model Generates Novel Liver X Receptor Modulators” (Journal of Medicinal Chemistry, 2025).
Entries after “also recorded” stand apart in the source; their conditions may differ.

Experiments:
LXRβ = target: T1, LXRβ (Homo sapiens, UniProt P55055); test: Gal4-LXRβ hybrid reporter gene assay; format: cell-based
T1 construct: coding for the hinge region, and LBD of the canonical isoform of the respective nuclear receptor; expressed in transfected cells; host or cells: HEK293T
T1 sequence (P55055 222-460 limits assumed): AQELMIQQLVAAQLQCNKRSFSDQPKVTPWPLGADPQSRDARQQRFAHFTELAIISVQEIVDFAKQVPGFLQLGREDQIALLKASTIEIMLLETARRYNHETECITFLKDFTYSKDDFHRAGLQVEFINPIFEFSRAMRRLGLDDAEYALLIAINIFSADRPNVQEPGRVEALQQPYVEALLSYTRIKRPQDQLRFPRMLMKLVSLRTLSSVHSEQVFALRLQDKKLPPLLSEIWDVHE
Experimental: The LXR-responsive reporter ABCA1-pGL3 was used for the full-length reporter gene assay.
The day before transfection, HEK293T cells were seeded in 96-well plates (4 × 10^4 cells/well). Before transfection, the medium was changed to Opti-MEM without any supplements. Transient transfection was carried out using Lipofectamine LTX reagent (Invitrogen) according to the manufacturer’s protocol with (a) pFR-Luc (Stratagene), pRL-SV40 (Promega), and the corresponding Gal4-fusion nuclear receptor plasmid or (b) the LXR-responsive reporter ABCA1-pGL3 and pRL-SV40 (Promega). […] Each concentration was tested in duplicate, and each experiment was repeated in at least three biologically independent repeats. […] Luminescence was measured with a Spark 10 M luminometer (Tecan Deutschland GmbH). Normalization of transfection efficiency and cell growth was done by division of firefly luciferase data by renilla luciferase data multiplied by 1000, resulting in relative light units (RLU). Fold activation was obtained by dividing the mean RLU of the tested compound at a respective concentration by the mean RLU of the untreated 0.1% DMSO control. […] Separate control experiments to exclude nonspecific reporter gene activation or VP16-mediated effects were performed following the same procedure in the absence of a nuclear receptor expression plasmid (pFR-Luc, pRL-SV40, and pECE-SV40-Gal4-VP16 only).

[1] = tested on: LXR/retinoid X receptor (RXR) heterodimer; test: full-length LXR assay (LXR-responsive ABCA1 reporter, endogenous LXR) in HEK293T and HepG2 cells; format: cell-based; conditions: vs 0.1% DMSO
Description: Intrigued by the initial data on LXR modulation, we further investigated the mode-of-action of designs 1-3. As the Gal4 hybrid reporter gene assay is artificial and overexpresses LXR, we next examined LXR modulation by 1-3 in a full-length LXR assay (Figure a) based on the endogenous expression of the LXR/retinoid X receptor (RXR) heterodimer (Figure S2). Upon activation, LXR binds to response elements within the ATP-binding cassette transporter A1 (ABCA1, an LXR target gene) promoter of the reporter. […] The designs were next checked for antiproliferative effects that may compromise further in vitro characterization. […] Therefore, and due to the weak efficacy of 2, we focused further biological characterization on 1 and 3.
(§1) For the hybrid reporter gene assays, the previously reported Gal4-fusion receptor plasmids pFA-CMV-hRORα-LBD, pFA-CMV-hRORβ-LBD, pFA-CMV-hRORγ-LBD, pFA-CMV-hLXRα-LBD, pFA-CMV-hLXRβ-LBD, pFA-CMV-hFXR-LBD, pFA-CMV-hPXR-LBD, and pFA-CMV-hRXRα-LBD, coding for the hinge region, and LBD of the canonical isoform of the respective nuclear receptor were used. pFR-Luc (Stratagene) was used as the reporter plasmid, and pRL-SV40 (Promega) was used in all assays for the normalization of transfection efficiency and cell growth. pECE-SV40-Gal4-VP16 was a gift from Lea Sistonen (Addgene plasmid #71728). The LXR-responsive reporter ABCA1-pGL3 was used for the full-length reporter gene assay.
(§2) The day before transfection, HEK293T cells were seeded in 96-well plates (4 × 10^4 cells/well). Before transfection, the medium was changed to Opti-MEM without any supplements. […] Luminescence was measured with a Spark 10 M luminometer (Tecan Deutschland GmbH). […] EC50/IC50 values and the standard errors thereof were calculated with the mean fold activation values by OriginPro, Version 2025 (OriginLab Corporation, Northampton, MA, USA), fitting a dose–response curve with a variable Hill slope (Levenberg–Marquardt algorithm). […]

HepG2 cells = test: resazurin-based proliferation assay, HepG2; format: cell-based
Experimental: HepG2 or HEK293T cells were seeded in 96-well plates (4 × 10^4 cells per well). […] After 4, 14, and 24 h, the medium was aspirated, and the cells were incubated with 100 μM resazurin solution in Opti-MEM (prepared from a 0.15 mg/mL resazurin stock in DPBS) for 60 min. The metabolic activity was assessed by conversion of resazurin to resorufin, which was quantified by measuring absorbance at 570 nm and a reference wavelength of 600 nm. The cell count was calculated from a calibration curve with 0–10^5 cells per well in steps of 2 × 10^4.

RORα (NR1F1) = target: T2, RORα (NR1F1) (Homo sapiens, UniProt P35398); test: Gal4-RORα hybrid reporter gene assay (off-target profiling); format: cell-based
T2 construct: coding for the hinge region, and LBD of the canonical isoform of the respective nuclear receptor; expressed in transfected cells; host or cells: HEK293T
T2 sequence (P35398 272-510 limits assumed): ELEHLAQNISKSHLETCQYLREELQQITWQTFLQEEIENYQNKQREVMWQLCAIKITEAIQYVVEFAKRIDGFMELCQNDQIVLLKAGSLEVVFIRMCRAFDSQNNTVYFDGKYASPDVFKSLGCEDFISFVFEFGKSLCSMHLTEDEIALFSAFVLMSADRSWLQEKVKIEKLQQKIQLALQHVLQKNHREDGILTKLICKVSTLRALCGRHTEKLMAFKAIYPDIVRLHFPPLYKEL
Description: as §1, §2

ABCA1 = test: qPCR of LXR-regulated mRNA expression in HepG2: ABCA1; format: cell-based, human; conditions: HepG2, 24 h
APOE = test: qPCR of LXR-regulated mRNA expression in HepG2: APOE; format: cell-based, human; conditions: HepG2, 24 h

| EC50 (LXRβ; classification agonist, read-out: LXRb pEC50/pIC50 (converted)) [nM] | SMILES | LXR modulation in LXR-responsive ABCA1 reporter gene assay ([1]; 3 μM) | antiproliferative effect (HepG2 cells; 10 μM) | RORα activity (RORα (NR1F1); off-target profiling, compared with T0901317) | ABCA1 mRNA expression (ABCA1; 3 μM) | APOE mRNA expression (APOE; 3 μM) | IC50 (LXRβ) [nM] | LXR modulation in LXR-responsive ABCA1 reporter gene assay ([1]; 10 μM) | antiproliferative effect (HepG2 cells; 30 μM) | RORα activity (RORα (NR1F1); 30 μM) | ABCA1 mRNA expression (ABCA1; 30 μM) | APOE mRNA expression (APOE; 30 μM) |
| --- | --- | --- | --- | --- | --- | --- | --- | --- | --- | --- | --- | --- |
| 589 | CCN(C(=O)c1ccccc1)c1ccc(C(O)(C(F)(F)F)C(F)(F)F)cc1 [Compound 1, N-Ethyl-N-(4-[1,1,1,3,3,3-hexafluoro-2-hydroxypropan-2-yl]phenyl)benzamide] | partial LXR agonists; also recorded: partial LXR agonism | did not inhibit the proliferation | no activity; also recorded: did not affect | induced | induced | – | – | – | – | – | – |
| – | CS(=O)(=O)c1cccc(-c2ccc(CN(Cc3cccc(C(F)(F)F)c3Cl)CC(c3ccccc3)c3ccccc3)cc2)c1 [Compound 3, N-(2-Chloro-3-[trifluoromethyl]benzyl)-N-([3′-{methylsulfonyl}-{1,1′-biphenyl}-4-yl]methyl)-2,2-diphenylethan-1-amine] | – | – | – | – | – | 2950 | robustly blocked LXR activation; also recorded: inverse agonist | did not inhibit the proliferation | only activated RORα with low efficacy; also recorded: weak RORα activation | did not significantly alter the expression; also recorded: only a weak impact | did not significantly alter the expression; also recorded: only a weak impact |
